Laboratory results taken from patent US20250270213A1, “PI3Ka INHIBITORS” (Synnovation Therapeutics, Inc., priority 2022, published 2025).

System: T47D (PIK3CA H1047R) cells
Assay: pS473 AKT assay with 2.5% FBS, T47D cells
Assay type: cell-based
Details: Homo sapiens, pSer473 AKT, DMEM with 2.5% FBS, 2 h treatment, read-out: T47D_IC50
Method in brief: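 In-cell chemiluminescent ELISA of AKT Ser473 phosphorylation, using anti-pSer473 primary and HRP secondary antibodies on fixed cells. T47D (PIK3CA H1047R) cells had 2 h of compound treatment in DMEM containing 2.5% FBS; IC50 derived from dose-response.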

| SMILES | IC50 [nM] |
| --- | --- |
| CCn1c(=O)c2cc(C)cc(C(C)Nc3ccc(Cl)nc3-c3ncn(C)n3)c2c2cnn(C3CCN(C(C)=O)C3)c21 (stereo not shown) [Compound 149, 3-(1-acetylpyrrolidin-3-yl)-9-(1-((6-chloro-2-(1-methyl-1H-1,2,4-triazol-3-yl)pyridin-3-yl)amino)ethyl)-4-ethyl-7-methyl-3,4-dihydro-5H-pyrazolo[3,4-c]isoquinolin-5-one] | < 1000 |
| CCn1c(=O)c2cc(C)cc(C(C)Nc3ccc(Cl)nc3-c3ncn(C)n3)c2c2cnn(C3CCN(C(=O)OC)C3)c21 (stereo not shown) [Compound 150, methyl 3-(9-(1-((6-chloro-2-(1-methyl-1H-1,2,4-triazol-3-yl)pyridin-3-yl)amino)ethyl)-4-ethyl-7-methyl-5-oxo-4,5-dihydro-3H-pyrazolo[3,4-c]isoquinolin-3-yl)pyrrolidine-1-carboxylate] | < 1000 |
| Cc1cc(C(C)Nc2ccc(Cl)nc2-c2ccncc2F)c2c(c1)c(=O)n(C)c1c2cnn1C1CCN(C(=O)N(C)C)C1 (stereo not shown) [Compound 151, 3-(9-(1-((6-chloro-3′-fluoro-[2,4′-bipyridin]-3-yl)amino)ethyl)-4,7-dimethyl-5-oxo-4,5-dihydro-3H-pyrazolo[3,4-c]isoquinolin-3-yl)-N,N-dimethylpyrrolidine-1-carboxamide] | < 1000 |
| [2H]C([2H])([2H])n1c(=O)c2cc(C)cc(C(C)Nc3ccc(Cl)nc3-c3cnn(C)c3)c2c2cnn(C3CCN(CCC#N)C3)c21 (stereo not shown) [Compound 152, 3-(3-(9-(1-((6-Chloro-2-(1-methyl-1H-pyrazol-4-yl)pyridin-3-yl)amino)ethyl)-7-methyl-4-(methyl-d3)-5-oxo-4,5-dihydro-3H-pyrazolo[3,4-c]isoquinolin-3-yl)pyrrolidin-1-yl)propanenitrile] | < 1000 |
| [2H]C([2H])([2H])n1c(=O)c2cc(C)cc(C(C)Nc3ccc(Cl)nc3-c3nnn(C)n3)c2c2cnn(C3CCN(CCC#N)C3)c21 (stereo not shown) [Compound 153, 3-(3-(9-(1-((6-chloro-2-(2-methyl-2H-tetrazol-5-yl)pyridin-3-yl)amino)ethyl)-7-methyl-4-(methyl-d3)-5-oxo-4,5-dihydro-3H-pyrazolo[3,4-c]isoquinolin-3-yl)pyrrolidin-1-yl)propanenitrile] | < 1000 |
| [2H]C([2H])([2H])n1c(=O)c2cc(C)cc(C(C)Nc3ccc(Cl)nc3-c3cnn(C)c3)c2c2cnn(C3CCN(C(=O)CO)C3)c21 (stereo not shown) [Compound 154, 9-(1-((6-Chloro-2-(1-methyl-1H-pyrazol-4-yl)pyridin-3-yl)amino)ethyl)-3-(1-(2-hydroxyacetyl)pyrrolidin-3-yl)-7-methyl-4-(methyl-d3)-3,4-dihydro-5H-pyrazolo[3,4-c]isoquinolin-5-one] | < 1000 |
| [2H]C([2H])([2H])n1c(=O)c2cc(C)cc(C(C)Nc3ccc(Cl)nc3-c3cnn(C)c3)c2c2cnn(C3CCN(C(=O)CN(C)C)C3)c21 (stereo not shown) [Compound 155, 9-(1-((6-chloro-2-(1-methyl-1H-pyrazol-4-yl)pyridin-3-yl)amino)ethyl)-3-(1-(dimethylglycyl)pyrrolidin-3-yl)-7-methyl-4-(methyl-d3)-3,4-dihydro-5H-pyrazolo[3,4-c]isoquinolin-5-one] | < 1000 |
| [2H]C([2H])([2H])n1c(=O)c2cc(C)cc(C(C)Nc3ccc(Cl)nc3-c3cnn(C)c3)c2c2cnn(C3CCN(C(=O)c4ccnn4C)C3)c21 (stereo not shown) [Compound 156, 9-(1-((6-chloro-2-(1-methyl-1H-pyrazol-4-yl)pyridin-3-yl)amino)ethyl)-7-methyl-4-(methyl-d3)-3-(1-(1-methyl-1H-pyrazole-5-carbonyl)pyrrolidin-3-yl)-3,4-dihydro-5H-pyrazolo[3,4-c]isoquinolin-5-one] | < 1000 |
| [2H]C([2H])([2H])n1c(=O)c2cc(C)cc(C(C)Nc3ccc(Cl)nc3-c3cnn(C)c3)c2c2cnn(C3CCN(C(=O)C4(C#N)CC4)C3)c21 (stereo not shown) [Compound 157, 1-(3-(9-(1-((6-chloro-2-(1-methyl-1H-pyrazol-4-yl)pyridin-3-yl)amino)ethyl)-7-methyl-4-(methyl-d3)-5-oxo-4,5-dihydro-3H-pyrazolo[3,4-c]isoquinolin-3-yl)pyrrolidine-1-carbonyl)cyclopropane-1-carbonitrile] | < 1000 |
| Cc1cc(C(C)Nc2ccc(Cl)nc2-c2cnn(C)c2)c2c(c1)c(=O)n(C)c1c2cnn1C1CCN(C)CC1 (stereo not shown) [Compound 158, 9-(1-((6-Chloro-2-(1-methyl-1H-pyrazol-4-yl)pyridin-3-yl)amino)ethyl)-4,7-dimethyl-3-(1-methylpiperidin-4-yl)-3,4-dihydro-5H-pyrazolo[3,4-c]isoquinolin-5-one] | < 1000 |
| Cc1cc(C(C)Nc2ccc(Cl)nc2-c2ncn(C)n2)c2c(c1)c(=O)n(C)c1c2cnn1C1CCN(C)CC1 (stereo not shown) [Compound 159, 9-[1-[[6-chloro-2-(1-methyl-1,2,4-triazol-3-yl)-3-pyridyl]amino]ethyl]-4,7-dimethyl-3-(1-methyl-4-piperidyl)pyrazolo[3,4-c]isoquinolin-5-one] | < 1000 |
| CCn1cc(-c2nc(Cl)ccc2NC(C)c2cc(C)cc3c(=O)n(C)c4c(cnn4C4CCN(C)CC4)c23)cn1 (stereo not shown) [Compound 160, 9-[1-[[6-chloro-2-(1-ethylpyrazol-4-yl)-3-pyridyl]amino]ethyl]-4,7-dimethyl-3-(1-methyl-4-piperidyl)pyrazolo[3,4-c]isoquinolin-5-one] | < 1000 |
| Cc1cc(C(C)Nc2ccc(Cl)nc2-c2nnn(C)n2)c2c(c1)c(=O)n(C)c1c2cnn1C1CCN(C)CC1 (stereo not shown) [Compound 161, 9-[1-[[6-chloro-2-(2-methyltetrazol-5-yl)-3-pyridyl]amino]ethyl]-4,7-dimethyl-3-(1-methyl-4-piperidyl)pyrazolo[3,4-c]isoquinolin-5-one] | < 1000 |
| Cc1cc(C(C)Nc2ccc(Cl)nc2-c2nnco2)c2c(c1)c(=O)n(C)c1c2cnn1C1CCN(C)CC1 (stereo not shown) [Compound 162, 9-[1-[[6-chloro-2-(1,3,4-oxadiazol-2-yl)-3-pyridyl]amino]ethyl]-4,7-dimethyl-3-(1-methyl-4-piperidyl)pyrazolo[3,4-c]isoquinolin-5-one] | < 1000 |
| CNC(=O)c1ccc(-c2nc(Cl)ccc2NC(C)c2cc(C)cc3c(=O)n(C)c4c(cnn4C4CCN(C)CC4)c23)cn1 (stereo not shown) [Compound 163, 5-[6-chloro-3-[1-[4,7-dimethyl-3-(1-methyl-4-piperidyl)-5-oxo-pyrazolo[3,4-c]isoquinolin-9-yl]ethylamino]-2-pyridyl]-N-methyl-pyridine-2-carboxamide] | < 1000 |
| Cc1cc(C(C)Nc2ccc(Cl)nc2-c2noc(=O)[nH]2)c2c(c1)c(=O)n(C)c1c2cnn1C1CCN(C)CC1 (stereo not shown) [Compound 164, 3-[6-chloro-3-[1-[4,7-dimethyl-3-(1-methyl-4-piperidyl)-5-oxo-pyrazolo[3,4-c]isoquinolin-9-yl]ethylamino]-2-pyridyl]-4H-1,2,4-oxadiazol-5-one] | < 1000 |
| Cc1cc(C(C)Nc2ccc(Cl)nc2-c2cn(C)nc2C)c2c(c1)c(=O)n(C)c1c2cnn1C1CCN(C)CC1 (stereo not shown) [Compound 165, 9-[1-[[6-chloro-2-(1,3-dimethylpyrazol-4-yl)-3-pyridyl]amino]ethyl]-4,7-dimethyl-3-(1-methyl-4-piperidyl)pyrazolo[3,4-c]isoquinolin-5-one] | < 1000 |
| Cc1cc(C(C)Nc2ccc(Cl)nc2-c2ccc(=O)n(C)c2)c2c(c1)c(=O)n(C)c1c2cnn1C1CCN(C)CC1 (stereo not shown) [Compound 166, 9-[1-[[6-chloro-2-(1-methyl-6-oxo-3-pyridyl)-3-pyridyl]amino]ethyl]-4,7-dimethyl-3-(1-methyl-4-piperidyl)pyrazolo[3,4-c]isoquinolin-5-one] | < 1000 |
| Cc1cc(C(C)Nc2ccc(Cl)nc2N2CCC(O)CC2)c2c(c1)c(=O)n(C)c1c2cnn1C1CCN(C)CC1 (stereo not shown) [Compound 167, 9-[1-[[6-chloro-2-(4-hydroxy-1-piperidyl)-3-pyridyl]amino]ethyl]-4,7-dimethyl-3-(1-methyl-4-piperidyl)pyrazolo[3,4-c]isoquinolin-5-one] | < 1000 |
| Cc1cc(C(C)Nc2ccc(Cl)nc2-c2ccncc2F)c2c(c1)c(=O)n(C)c1c2cnn1C1CCN(C)CC1 (stereo not shown) [Compound 168, 9-[1-[[6-chloro-2-(3-fluoro-4-pyridyl)-3-pyridyl]amino]ethyl]-4,7-dimethyl-3-(1-methyl-4-piperidyl)pyrazolo[3,4-c]isoquinolin-5-one] | < 1000 |
| Cc1cc(C(C)Nc2ccc(Cl)nc2-c2cccnc2)c2c(c1)c(=O)n(C)c1c2cnn1C1CCN(C)CC1 (stereo not shown) [Compound 169, 9-[1-[[6-chloro-2-(3-pyridyl)-3-pyridyl]amino]ethyl]-4,7-dimethyl-3-(1-methyl-4-piperidyl)pyrazolo[3,4-c]isoquinolin-5-one] | < 1000 |
| CNC(=O)c1ccc(-c2nc(C)ccc2NC(C)c2cc(C)cc3c(=O)n(C)c4c(cnn4C4CCN(C)CC4)c23)cn1 (stereo not shown) [Compound 170] | < 1000 |
| Cc1cc(C(C)Nc2ccc(Cl)nc2-c2ccn(C)c(=O)c2)c2c(c1)c(=O)n(C)c1c2cnn1C1CCN(C)CC1 (stereo not shown) [Compound 171, 9-[1-[[6-chloro-2-(1-methyl-2-oxo-4-pyridyl)-3-pyridyl]amino]ethyl]-4,7-dimethyl-3-(1-methyl-4-piperidyl)pyrazolo[3,4-c]isoquinolin-5-one] | < 1000 |
| Cc1cc(C(C)Nc2ccc(Cl)nc2-c2cnn(C)c2)c2c(c1)c(=O)n(C)c1c2cnn1C1CCN(CC(C)(C)O)CC1 (stereo not shown) [Compound 172, 9-[1-[[6-Chloro-2-(1-methylpyrazol-4-yl)-3-pyridyl]amino]ethyl]-3-[1-(2-hydroxy-2-methyl-propyl)-4-piperidyl]-4,7-dimethyl-pyrazolo[3,4-c]isoquinolin-5-one] | < 1000 |
| Cc1cc(C(C)Nc2ccc(Cl)nc2-c2cnn(C)c2)c2c(c1)c(=O)n(C)c1c2cnn1C1CCN(C[C@@H](C)O)CC1 (stereo partly drawn) [Compound 173, 9-[1-[[6-chloro-2-(1-methylpyrazol-4-yl)-3-pyridyl]amino]ethyl]-3-[1-[(2R)-2-hydroxypropyl]-4-piperidyl]-4,7-dimethyl-pyrazolo[3,4-c]isoquinolin-5-one] | < 1000 |
